In ChEMBL document CHEMBL4390680, “In silico study of M18 aspartyl amino peptidase (M18AAP) of Plasmodium vivax as an antimalarial drug target” (Bioorg Med Chem, 2019) one finds pIC50 data, which are given here for 31 molecules.

A short description of this test: Inhibition of Plasmodium vivax aminopeptidase-M18.

One may read the pIC50 as −log10 of the IC50, conventionally taken in molar units. A high value points to a small IC50. The molecule `COc1ccc(CCNC2CCN(Cc3ccccc3)CC2)cc1OC` showed a pIC50 of 5.161.

As for `COc1ccc(CCNc2c3ccccc3nc3ccccc23)cc1OC`, the pIC50 amounted to 5.61.

The molecule `Oc1ccc(CCNc2ccnc3ccccc23)cc1O` displayed a pIC50 of 5.409. `COc1ccc(CCN(C)c2c3ccccc3nc3ccccc23)cc1OC` gave a pIC50 of 5.347. The same measure for `Oc1ccc(CCNc2c3c(nc4ccccc24)CCCC3)cc1O`: 5.443; for `COc1ccc(CCN(C)c2ccnc3cc(Cl)ccc23)cc1OC`: 5.24. With `COc1ccc(C2CCN(c3ccnc4ccccc34)C2)cc1OC` (stereo unspecified), the pIC50 worked out at 5.699. `Oc1cccc(CCNc2ccnc3ccccc23)c1O` yielded a pIC50 of 5.569. The molecule `CCOc1ccc2nccc(NCCc3ccc(OC)c(OC)c3)c2c1` returned a pIC50 of 5.854. In the case of `O=c1ccn(CCNc2c3ccccc3nc3ccccc23)cc1OCc1ccccc1` it was 5.328; in that of `Oc1ccc(CCN2CCc3ccccc3C2)cc1O`, 5.102; in that of `COc1ccc(CCNc2c3ccccc3nc3ccccc23)cc1`, 5.959. In turn, `Cc1c(OCc2ccccc2)c(=O)ccn1CCNc1c2ccccc2nc2ccccc12` returned a pIC50 of 5.398. Consider `Oc1ccc(C2CCN(c3ccnc4ccccc34)C2)cc1O` (stereo unspecified), for which the pIC50 came to 6.031. For the molecule `Cc1cccc2c(NCCc3ccc(O)c(O)c3)ccnc12`, the pIC50 came to 5.328.

Turning to `Oc1ccc(CCNc2ccnc3cc(Cl)ccc23)cc1O`, the pIC50 is 6.208. In the case of `COc1ccc(CNc2c3ccccc3nc3ccccc23)cc1OC` it was 5.979; in that of `COc1cccc(CCNc2c3ccccc3nc3ccccc23)c1`, 6.221.

In turn, `Oc1ccc(C2CCN(c3ccnc4ccccc34)CC2)cc1O` showed a pIC50 of 5.887. Regarding `Oc1ccc(C2CCCN(c3ccnc4ccccc34)C2)cc1O` (stereo unspecified), the pIC50 turned out to be 5.377. Turning to `Oc1ccc(CCNc2c3ccccc3nc3ccccc23)cc1`, the pIC50 was 6.155.

In turn, `Oc1ccc(CCCNc2c3ccccc3nc3ccccc23)cc1O` registered a pIC50 of 5.432. In the case of `COc1ccc(CCCNc2c3ccccc3nc3ccccc23)cc1OC` it was 5.658. Take `COc1ccc(CCNc2cncc3ccccc23)cc1OC`: the pIC50 was 5.347.

With `CN(CCc1ccc(O)c(O)c1)c1ccnc2ccccc12`, the pIC50 stood at 5.319.

`NCCNc1c2ccccc2nc2ccccc12` showed a pIC50 of 6.301. In the case of `Oc1ccc(CCNC2CCN(Cc3ccccc3)CC2)cc1O` it was 5.187; in that of `COc1cc(Br)c(CCNc2c3ccccc3nc3ccccc23)cc1OC`, 6.522.

Molecule `COc1cc(Br)c(CCNc2ccnc3ccccc23)cc1OC` returned a pIC50 of 6.347. The molecule `COc1cc(Br)c(CCNc2c3c(nc4ccccc24)CCCC3)cc1OC` returned a pIC50 of 5.522. The molecule `COc1ccc(CCNc2ccnc3cc(Cl)ccc23)cc1OC` gave a negative logarithm of the IC50 (pIC50) of 6.18.
